From article PMC3149978 (Clinical cancer research : an official journal of the …, 2011)
Like-named read-outs stand apart in the source and are kept apart here.

Columns and labels:
[1] = system: pediatric patients with refractory solid tumors; assay: Phase I dose escalation and toxicity evaluation; assay type: in vivo, human
refractory solid tumors = assay: Tumor response evaluated by RECIST; assay type: in vivo, human
VEGF = assay: Plasma angiogenic biomarker ELISA, baseline vs day 28 of cycle 1; assay type: in vivo, human; conditions: baseline to day 28 of cycle 1; 12 patients; p = 0.002
[2] = system: placental growth factor (PlGF); assay: as above; assay type: in vivo, human; conditions: baseline to day 28 of cycle 1; 12 patients; p = 0.0003
endoglin = assay: as above; assay type: in vivo, human; conditions: baseline to day 28 of cycle 1; 12 patients; p = 0.01
[3] = system: stromal cell -derived factor-1 (SDF-1); assay: as above; assay type: in vivo, human; conditions: baseline to day 28 of cycle 1; 12 patients
[4] = system: Circulating endothelial cells (CECs) and endothelial progenitor cells (CEPs); assay: Circulating endothelial cells and progenitor cells by flow cytometry; assay type: in vivo, human; conditions: 11 patients with paired baseline and day 28 samples
monocyte counts = assay: Absolute monocyte counts, day 1 vs day 28; assay type: in vivo, human
[5] = human, in vivo
adult patients = conditions: cited from earlier work
clinical = conditions: human, in vivo, 20 mg/m2
[6] = Steady-state trough plasma concentrations in cycle 1
[7] = in vivo, po
[8] = Extended pharmacokinetic sampling after the first dose
[9] = 17 patients with decreases, day 1 to day 28
[10] = dose level 15 g/m^2 (so in the source), N = 8

Compound: CCN(CC)CCNC(=O)c1c(C)[nH]c(/C=C2\C(=O)Nc3ccc(F)cc32)c1C [Sunitinib]
- cardiac toxicity ([1]; Patient 2, 15 mg/m^2, Day 28, Cycle 1, doxorubicin 367 mg/m^2, prior cardiac radiation): Symptomatic diastolic and systolic dysfunction; transient ischemic changes on EKG
- maximum tolerated dose ([1]; children without prior anthracycline exposure or radiation therapy involving a cardiac field): 15 mg/m^2
- ALT elevation G1 ([1]; human, in vivo): 11%
- Hypophosphatemia G1 ([1]; human, in vivo): 11%
- Leukopenia G1 ([1]; human, in vivo): 40%
- Thrombocytopenia G1 ([1]; human, in vivo): 40%
- ALT elevation G1 ([1]; human, in vivo, 1 cycle): 17%
- AST elevation G1 ([1]; human, in vivo, 1 cycle): 33%
- Anemia G1 ([1]; human, in vivo, 1 cycle): 25%
- Anorexia G2 ([1]; human, in vivo, 1 cycle): 17%
- Diarrhea G1 ([1]; human, in vivo, 1 cycle): 33%
- Hypoalbuminemia G1 ([1]; human, in vivo, 1 cycle): 25%
- Hypocalcemia G1 ([1]; human, in vivo, 1 cycle): 25%
- patients who developed hypothyroidism (≤ grade 2) ([1]; human, in vivo, 1 cycle): Three of 23
- ALT elevation G2 ([1]; human, in vivo, 42 days): 11%
- Anorexia G1 ([1]; human, in vivo, 42 days): 11%
- CNS hemorrhage G4 ([1]; human, in vivo, 42 days): 11%
- Constipation G1 ([1]; human, in vivo, 42 days): 11%
- Cranial neuropathy G4 ([1]; human, in vivo, 42 days): 11%
- Decreased serum bicarbonate G1 ([1]; human, in vivo, 42 days): 11%
- Dehydration G1 ([1]; human, in vivo, 42 days): 11%
- Diarrhea G1 ([1]; human, in vivo, 42 days): 11%
- Diarrhea G2 ([1]; human, in vivo, 42 days): 11%
- Epistaxis G1 ([1]; human, in vivo, 42 days): 11%
- Eye swelling G1 ([1]; human, in vivo, 42 days): 11%
- Headache G1 ([1]; human, in vivo, 42 days): 11%
- Hypernatremia G1 ([1]; human, in vivo, 42 days): 11%
- Hypertension G1 ([1]; human, in vivo, 42 days): 11%
- Hyperuricemia G1 ([1]; human, in vivo, 42 days): 11%
- Hyperuricemia G4 ([1]; human, in vivo, 42 days): 11%
- Hypoalbuminemia G1 ([1]; human, in vivo, 42 days): 11%
- Hypomagnesemia G1 ([1]; human, in vivo, 42 days): 11%
- Hypothyroidism G1 ([1]; human, in vivo, 42 days): 11%
- Left ventricular systolic dysfunction G2 ([1]; human, in vivo, 42 days): 17%
- Leukopenia G1 ([1]; human, in vivo, 42 days): 33%
- Leukopenia G2 ([1]; human, in vivo, 42 days): 17%
- Leukopenia G3 ([1]; human, in vivo, 42 days): 25%
- Lipase elevation G1 ([1]; human, in vivo, 42 days): 11%
- Lymphopenia G1 ([1]; human, in vivo, 42 days): 17%
- Lymphopenia G3 ([1]; human, in vivo, 42 days): 17%
- Muscle or joint pain G1 ([1]; human, in vivo, 42 days): 11%
- Muscle or joint pain G2 ([1]; human, in vivo, 42 days): 11%
- Neutropenia G2 ([1]; human, in vivo, 42 days): 17%
- Neutropenia G3 ([1]; human, in vivo, 42 days): 33%
- Thrombocytopenia G1 ([1]; human, in vivo, 42 days): 42%
- Thrombocytopenia G2 ([1]; human, in vivo, 42 days): 25%
- Weight loss G2 ([1]; human, in vivo, 42 days): 17%
- cardiac dysfunction ([1]; in vivo): No cardiac dysfunction was observed
- changes in hair color and texture ([1]; in vivo): not reported
- growth plate thickening ([1]; in vivo): did not demonstrate any growth plate thickening
- hypertension ([1]; in vivo): rarely reported
- patients who developed hypothyroidism (≤ grade 2) ([1]; in vivo): Two patients
- maximum tolerated dose ([1]; patients without prior anthracycline or cardiac radiation exposure, once daily for 28 days followed by a 14-day break): 15 mg/m^2/day
- objective responses (refractory solid tumors; 17 patients evaluable for response): No objective responses were observed
- patients with best response of stable disease (refractory solid tumors; diffuse pontine glioma (2 cycles), osteosarcoma (4 cycles), epithelioid sarcoma (9 cycles), ganglioglioma (9 cycles)): Four patients
- 123I-meta-iodobenzylguanidine scan finding (refractory solid tumors; one patient with neuroblastoma, one cycle at 20 mg/m^2, persistent bone marrow disease): resolution of the disease noted at baseline
- change in plasma VEGF concentration (VEGF): increased significantly
- change in plasma placental growth factor concentration [2]: increased significantly
- change in plasma endoglin concentration (endoglin): decreased significantly
- change in plasma SDF-1 concentration [3]: did not change in a consistent manner
- change in totals and subsets of CECs and CEPs [4]: did not reliably change
- decrease in AMC, range (monocyte counts; [9]): 18 to 1253 µL⁻¹
- median decrease in AMC (monocyte counts; [9]): 117 µL⁻¹
- patients with decreases in absolute monocyte count (AMC) (monocyte counts; 18 patients with paired day 1 and day 28 counts): 17
- AUC0-48h [5]: 0.698 ng·h/mL
- AUC0-48h, Median [5]: 0.492 ng·h/mL
- AUC0-∞ [5]: 0.879 ng·h/mL
- AUC0-∞, Median [5]: 0.747 ng·h/mL
- Tmax, Max [5]: 48.0 h
- Tmax, Min [5]: 2.0 h
- median peak plasma concentration [5]: 16.8 ng/mL
- peak plasma concentration, range [5]: 9.5 to 61.4 ng/mL
- time at which median peak plasma concentration was achieved [5]: 7 h
- incidence of grade 3 or symptomatic congestive heart failure (adult patients; adult patients treated with sunitinib, ref [30]-[32]): 7-15%
- cases requiring dose reductions (adult patients; adults treated with sunitinib, ref [5], [6], [24], [25]): 11-50%
- Cmax (clinical): 26.3 ng/mL
- Css, Max ([6]; 15 mg/m^2 dose level): 57.9 ng/mL
- Css, Median ([6]; 15 mg/m^2 dose level): 28.0 ng/mL
- Css, Min ([6]; 15 mg/m^2 dose level): 13.2 ng/mL
- Css, Max ([6]; 20 mg/m^2 dose level): 65.0 ng/mL
- Css, Median ([6]; 20 mg/m^2 dose level): 36.5 ng/mL
- Css, Min ([6]; 20 mg/m^2 dose level): 28.2 ng/mL
- Day 21 Css sunitinib ([6]; Patient 1 with cardiac toxicity, 20 mg/m^2): 40 ng/mL
- Day 21 Css sunitinib ([6]; Patient 2 with cardiac toxicity, 15 mg/m^2): 18 ng/mL
- steady state plasma concentrations reached by ([6]; once daily oral dosing, cycle 1): ≤ 7 days

Compound: CCNCCNC(=O)c1c(C)[nH]c(/C=C2\C(=O)Nc3ccc(F)cc32)c1C [SU12662]
- steady state plasma concentrations reached by [7]: ≤ 7 days
- Tmax, Max [5]: 48.7 h
- Tmax, Median [5]: 8.0 h
- Tmax, Min [5]: 4.0 h
- Cmax ([5]; 20 mg/m2): 5.3 ng/mL
- Tmax ([5]; 20 mg/m2): 8.0 h
- AR (accumulation ratio = Css/C24h) ([8]; dose level 20 mg/m^2, N = 1): 4.2
- AR (accumulation ratio = Css/C24h), Max [8, 10]: 11.1
- AR (accumulation ratio = Css/C24h), Median [8, 10]: 6.4
- AR (accumulation ratio = Css/C24h), Min [8, 10]: 3.4
